Measurements reported in paper PMC5355877, “The development of novel LTA4H modulators to selectively target LTB4 generation” (Scientific Reports, 2017).
“Also recorded” adds a separate entry of the source. Like-named read-outs stand apart in the source and are kept apart here.

How the values were obtained:
[1] = molecular target: T1, LTA4H epoxide hydrolase activity (LTB4 generation) (Mus musculus, UniProt P24527); assay: LTA4H epoxide hydrolase activity: LTB4 generation by A23187-treated murine bone marrow neutrophils (EIA); assay type: cell-based
T1 construct: endogenous in cells; host or cells: murine bone marrow neutrophils
T1 sequence (P24527 1-611): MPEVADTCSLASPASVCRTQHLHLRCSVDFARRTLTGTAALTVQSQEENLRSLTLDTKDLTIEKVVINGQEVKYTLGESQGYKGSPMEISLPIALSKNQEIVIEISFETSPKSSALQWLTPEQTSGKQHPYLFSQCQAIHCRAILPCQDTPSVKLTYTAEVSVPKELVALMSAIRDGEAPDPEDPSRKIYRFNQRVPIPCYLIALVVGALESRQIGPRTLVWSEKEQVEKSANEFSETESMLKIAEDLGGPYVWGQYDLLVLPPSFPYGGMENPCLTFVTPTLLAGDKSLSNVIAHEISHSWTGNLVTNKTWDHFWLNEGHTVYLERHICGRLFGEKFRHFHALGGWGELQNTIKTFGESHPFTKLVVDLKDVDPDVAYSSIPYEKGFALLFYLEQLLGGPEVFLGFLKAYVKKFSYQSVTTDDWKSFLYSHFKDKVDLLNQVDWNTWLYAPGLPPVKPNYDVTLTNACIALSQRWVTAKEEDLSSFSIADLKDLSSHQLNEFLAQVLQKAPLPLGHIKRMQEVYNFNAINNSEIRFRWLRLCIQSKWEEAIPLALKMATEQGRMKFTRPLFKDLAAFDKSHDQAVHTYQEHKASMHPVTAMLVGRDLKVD
Experimental: To isolate murine bone marrow neutrophils, the femur and the tibia from both hind legs were removed and freed of soft tissue attachments, and the extreme distal tip of each extremity cut off. HBSS containing 15 mM EDTA and 30 mM HEPES was forced through the bone with a syringe. After dispersing cell clumps and passage through a […] sieve (BD labware, New Jersey), red blood cells were lysed by resuspending pellets in ACK buffer (for 3 minutes at room temperature) before centrifugation (800 × g, 5 min) and washing with HBSS. The cell suspension was centrifuged (800 × g, 5 min, 4 °C) and resuspended in RPMI.
1% DMSO was used as a control. Cells were incubated for 20 minutes at 37 °C, and the reaction was terminated by centrifugation (600 × g, 5 min, 4 °C). Supernatants were removed and stored at −80 °C for subsequent LTB4 analysis. The concentration of LTB4 generated in the epoxide hydrolase activity assay was assayed using an EIA, according to manufacturer’s directions (R&D systems, Minneapolis, MN). Test compounds were assayed in a blinded manner by an investigator during determination of effect on LTA4H epoxide hydrolase activity.

[2] = molecular target: T2, recombinant human LTA4H (aminopeptidase, PGP substrate) (Homo sapiens, UniProt P09960); assay: LTA4H aminopeptidase activity: PGP degradation by recombinant human LTA4H; assay type: biochemical
T2 construct: purchased Cayman Chemicals
T2 sequence (P09960 1-611): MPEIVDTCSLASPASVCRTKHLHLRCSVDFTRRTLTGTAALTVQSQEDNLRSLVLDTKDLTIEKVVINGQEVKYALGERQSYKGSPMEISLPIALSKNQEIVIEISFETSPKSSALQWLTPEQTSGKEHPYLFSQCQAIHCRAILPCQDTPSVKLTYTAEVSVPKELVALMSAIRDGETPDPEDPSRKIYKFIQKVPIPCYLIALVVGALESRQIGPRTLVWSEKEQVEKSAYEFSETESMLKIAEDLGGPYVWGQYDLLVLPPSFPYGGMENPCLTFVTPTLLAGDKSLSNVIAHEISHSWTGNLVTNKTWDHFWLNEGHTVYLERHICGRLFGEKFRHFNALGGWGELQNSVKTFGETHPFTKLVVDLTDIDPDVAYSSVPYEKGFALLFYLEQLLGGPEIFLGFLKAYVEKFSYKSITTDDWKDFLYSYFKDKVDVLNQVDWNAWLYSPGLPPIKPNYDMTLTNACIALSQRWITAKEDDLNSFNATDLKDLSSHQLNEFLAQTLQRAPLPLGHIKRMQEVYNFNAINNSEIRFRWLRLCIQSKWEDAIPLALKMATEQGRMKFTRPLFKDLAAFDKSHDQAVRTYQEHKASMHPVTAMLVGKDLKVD
Experimental: (§1) For peptide quantification in serum, PGP and AcPGP were measured using a MDS Sciex API-4000 spectrometer (Applied Biosystems, Foster City, CA) equipped with a Shimadzu HPLC (Columbia, MD). For peptide quantification from degradation experiments, PGP and AcPGP were measured using a Thermo Accela Pump and Autosampler coupled to a Thermo TSQ Quantum Access. […] Peak area was measured, and PGP/AcPGP peptide concentrations were calculated using a relative standard curve method as previously described.
(§2) Mouse serum (diluted 1/10 in PBS) or recombinant human LTA4H (0.1 μg/ml; Cayman Chemicals, Michigan, USA) were incubated with 0.4 mM PGP at 37 °C in 5% CO2 for varying periods of time. Concentrations of PGP remaining were subsequently quantified by ESI-LC/MS/MS (as discussed above) by comparison with PGP standards. The percentage of peptide degraded was determined relative to control samples of 0.4 mM PGP alone. PGP degradation was also assessed by measurement of free proline released and its ensuing reaction with Ninhydrin (as discussed below). Test compounds were assayed in a blinded manner by an investigator during determination of the effect on LTA4H aminopeptidase activity.
To assess free proline liberated, aliquots from PGP degradation experiments were diluted 1 in 10 in PBS (to a final volume of 250 μl). Glacial acetic acid (250 μl) was then added, followed by 250 μl of ninhydrin solution (25 mg/ml in acetic acid/6 M phosphoric acid; heated at 70 °C to dissolve). The reaction mixture was heated at 100 °C for 60 minutes, allowed to cool to room temperature and the proline containing fraction extracted with 500 μl of toluene and optical density measured at 520 nm.

[3] = molecular target: T3, LTA4H aminopeptidase activity (Ala-p-nitroanilide substrate) (Homo sapiens, UniProt P09960); set-up: method as in PMID 21983441; details: read-out: AC50 for augmenting aminopeptidase activity; cited from earlier work
T3 sequence (P09960 1-611): T2 sequence (P09960 1-611)

[4] = molecular target: T3, LTA4H aminopeptidase activity (Ala-p-nitroanilide substrate); assay: LTA4H aminopeptidase activity versus Ala-p-nitroanilide substrate; assay type: biochemical; details: in our hands
[5] = Mouse plasma protein binding; assay type: in vitro ADME
Source text: (§3) ARM1 (4-(4-benzylphenyl)-1,3-thiazole-2-amine), compound 11 (7-hydroxy-3-(4-hydroxyphenyl)-4H-chromen-4-one) and compound 13 (7-hydroxy-3-phenyl-4H-chromen-4-one) were all purchased from VitasMLab (Kowloon, Hong Kong). […] All other compounds were custom synthesized by Peakdale Molecular as described in Supplementary Information. ADMET (absorption, distribution, metabolism, and excretion – toxicity) studies were also outsourced to Peakdale Molecular.

[6] = Human plasma protein binding; assay type: in vitro ADME
Source text: as §3

[7] = Mouse liver microsome stability; assay type: in vitro ADME; details: liver microsomes
Source text: as §3

logD pH7.4 = assay type: physicochemical; details: pH 7.4; read-out: logDpH7.4
Source text: as §3

[8] = Human liver microsome stability; assay type: in vitro ADME; details: liver microsomes
Source text: as §3

[9] = system: serum aminopeptidase PGP-degrading activity; assay: Serum aminopeptidase PGP-degrading activity after oral dosing of mice; assay type: in vivo; details: 10 mg/kg orally, naïve female BALB/c mice, blood 4 h after dosing
Experimental: (§4) Blood was obtained from mice 4 h after oral dosing and downstream analysis performed blinded by an independent researcher. […] The reaction was terminated by centrifugation (600 × g, 5 min, 4 °C). Supernatants were analyzed for LTB4 by EIA (see below). To assess inhibition of aminopeptidase activity, PGP degrading capacity of serum was assessed as detailed below. Furthermore, absolute concentrations of PGP in serum was determined as detailed below.
as §2

serum PGP = assay: Absolute serum PGP concentrations after oral dosing of mice; assay type: in vivo; details: 10 mg/kg orally, naïve female BALB/c mice, blood 4 h after dosing
Experimental: as §4, §1

LTB4 generation = details: oral administration to naïve mice; cited from earlier work
[10] = LTB4 generation, murine neutrophils, Table 2, read-out: Epoxide Hydrolase IC50 ± SEM
[11] = PGP degradation, Table 2, read-out: Aminopeptidase IC50 ± SEM
[12] = LTB4 generation, murine neutrophils, Table 1, read-out: Epoxide Hydrolase IC50 ± SEM
[13] = PGP degradation, Table 3, read-out: Aminopeptidase IC50 ± SEM
[14] = LTB4 generation, murine neutrophils, Table 3, read-out: Epoxide Hydrolase IC50 ± SEM

Oc1ccc(/C=C\c2cc(O)cc(O)c2)cc1 [Compound 2, cis-Resveratrol]
IC50 [1, 10]: 14.3 ± 2.1 µM

COc1ccc(/C=C/c2cc(OC)cc(OC)c2)cc1 [Compound 3, trans-trismethoxy Resveratrol]
IC50 [2, 11]: 68.8 ± 9.9 µM
IC50 [1, 10]: 41.2 ± 5.5 µM

CC(=O)Oc1ccc(/C=C/c2cc(OC(C)=O)cc(OC(C)=O)c2)cc1 [Compound 4, 5-[(1E)-2-[4-(acetyloxy)phenyl]ethenyl]-1,3-Benzenediol-1,3-diacetate]
IC50 [2, 11]: > 100 µM
IC50 [1]: 38.6 ± 5.9 µM

COc1ccc(Cc2ccccc2)cc1 [Compound 4-MDM, 4-Methoxydiphenylmethane, reference compound]
AC50 [3]: 50 µM
effect on aminopeptidase activity versus Ala-p-nitroanilide substrate [4]: did promote aminopeptidase activity
IC50 ([2]; PGP degradation, recombinant LTA4H, Table 1, read-out: Aminopeptidase IC50 ± SEM): 75.2 µM
effect on aminopeptidase activity with physiological substrate PGP ([2]; PGP substrate): modest inhibition; also recorded: failed to augment PGP degradation
IC50 [1, 12]: 48.9 µM

COc1cc(O)cc(/C=C/c2ccc(O)cc2)c1 [Compound 5, 3-[(1E)-2-(4-hydroxyphenyl)ethenyl]-5-methoxyphenol hydrate]
IC50 [2]: 99.5 ± 22.6 µM
IC50 [1, 10]: 3.9 ± 0.4 µM

COc1cc(O)cc(CCc2ccc(O)cc2)c1 [Compound 6]
IC50 [2, 11]: > 100 µM
IC50 [1, 10]: 6.4 ± 0.7 µM

CCOc1cc(O)cc(CCc2ccc(O)cc2)c1 [Compound 7]
IC50 [2, 11]: > 100 µM
IC50 [1, 10]: 3.2 ± 0.7 µM

COc1cc(O)cc(CCc2cccc(O)c2)c1 [Compound 8]
IC50 [2, 11]: > 100 µM
IC50 [1, 10]: 1.7 ± 0.25 µM

O=C(Cc1ccc(O)cc1)c1ccc(O)cc1O [Compound 10, 1-(2,4-Dihydroxyphenyl)-2-(4-hydroxyphenyl)ethanone]
IC50 [2, 13]: > 100 µM
IC50 [1, 14]: 34.2 ± 4.7 µM

O=c1c(-c2ccc(O)cc2)coc2c(O)c(O)ccc12 [Compound 12, 7,8,4′-trihydroxyisoflavone]
fraction unbound [5]: 0.0723
fraction unbound [6]: 0.0326
microsomal CLint [7]: 8.9 ± 0.7 µL/min/mg
half-life ([7]; read-out: Mouse liver microsomes t1/2): 1.3 ± 0.102 h
logD (logD pH7.4): 1.24 ± 0.06
microsomal CLint [8]: < 5 µL/min/mg
half-life ([8]; read-out: Human liver microsomes t1/2): > 2.32 h
IC50 [2, 13]: 62.7 ± 13.3 µM
IC50 [1, 14]: 7.3 ± 0.8 µM
selectivity for hydrolase over peptidase inhibition ([1]; ratio of aminopeptidase to epoxide hydrolase IC50): > 8 fold

O=c1c(-c2ccccc2)coc2cc(O)ccc12 [Compound 13, 7-hydroxy-3-phenyl-4H-chromen-4-one]
IC50 [2, 13]: > 100 µM
IC50 [1, 14]: 48.2 ± 14.6 µM

O=c1c(-c2ccc(O)cc2)coc2c3c(ccc12)OCO3 [Compound 14]
IC50 [2, 13]: 20.6 ± 3.3 µM
IC50 [1, 14]: 20.6 ± 2.4 µM

Cc1ccc2c(=O)c(-c3ccc(O)cc3)coc2c1O [Compound 15]
IC50 [2, 13]: 69.2 ± 10.9 µM
IC50 [1, 14]: 1.2 ± 0.21 µM

O=C(O)CCCN1CCC[C@H]1COc1ccc(Oc2ccc(Cl)cc2)cc1 [DG-051, 4-[(2S)-2-{[4-(4-chlorophenoxy)phenoxy]methyl}-1-pyrrolidinyl]butanoic acid, reference compound]
IC50 [1, 12]: 0.68 ± 0.01 µM

CC(=O)NC1CC2CCC(C1)N2Cc1ccc(Oc2nc3ncccc3s2)cc1 (stereo not drawn) [JNJ-40929837]
serum aminopeptidase PGP-degrading activity [9]: potently abrogates; also recorded: potently inhibited
serum PGP (serum PGP): serum accumulation of PGP
IC50 [2]: 0.0094 ± 0.0013 µM
IC50 [1]: 0.009 ± 9e-05 µM

CN(CCCOc1ccc(Cc2ccccc2)cc1)CCC(=O)O.Cl [SC57461A, 3-[methyl[3-[4-(phenylmethyl)phenoxy]propyl]amino]propanoic acid HCl]
inhibition of LTB4 generation in ex vivo whole blood assay (LTB4 generation): potent inhibition
serum aminopeptidase PGP-degrading activity [9]: potently abrogates; also recorded: potently inhibited
serum PGP (serum PGP): serum accumulation of PGP
IC50 [1, 12]: 0.11 ± 0.0235 µM
